What all share (format): biochemical
Common to all, as to details: Caliper assay at 1 mM ATP

Assay [1] has as its target TYK2 (Homo sapiens (Human), UniProt P29597). Briefly: JAK Caliper Enzyme Assay at 1 mM ATP (TYK2).
Assay [2] concerns the target JAK1 (Homo sapiens (Human), UniProt P23458). Briefly: JAK Caliper Enzyme Assay at 1 mM ATP (JAK1).
Assay [3] concerns the target JAK2 (Homo sapiens (Human), UniProt O60674). Briefly: JAK Caliper Enzyme Assay at 1 mM ATP (JAK2).
Assay [4] addresses JAK3 (Homo sapiens (Human), UniProt P52333). Briefly: JAK Caliper Enzyme Assay at 1 mM ATP (JAK3).

Chain of JAK1 (P23458 whole entry, species assumed): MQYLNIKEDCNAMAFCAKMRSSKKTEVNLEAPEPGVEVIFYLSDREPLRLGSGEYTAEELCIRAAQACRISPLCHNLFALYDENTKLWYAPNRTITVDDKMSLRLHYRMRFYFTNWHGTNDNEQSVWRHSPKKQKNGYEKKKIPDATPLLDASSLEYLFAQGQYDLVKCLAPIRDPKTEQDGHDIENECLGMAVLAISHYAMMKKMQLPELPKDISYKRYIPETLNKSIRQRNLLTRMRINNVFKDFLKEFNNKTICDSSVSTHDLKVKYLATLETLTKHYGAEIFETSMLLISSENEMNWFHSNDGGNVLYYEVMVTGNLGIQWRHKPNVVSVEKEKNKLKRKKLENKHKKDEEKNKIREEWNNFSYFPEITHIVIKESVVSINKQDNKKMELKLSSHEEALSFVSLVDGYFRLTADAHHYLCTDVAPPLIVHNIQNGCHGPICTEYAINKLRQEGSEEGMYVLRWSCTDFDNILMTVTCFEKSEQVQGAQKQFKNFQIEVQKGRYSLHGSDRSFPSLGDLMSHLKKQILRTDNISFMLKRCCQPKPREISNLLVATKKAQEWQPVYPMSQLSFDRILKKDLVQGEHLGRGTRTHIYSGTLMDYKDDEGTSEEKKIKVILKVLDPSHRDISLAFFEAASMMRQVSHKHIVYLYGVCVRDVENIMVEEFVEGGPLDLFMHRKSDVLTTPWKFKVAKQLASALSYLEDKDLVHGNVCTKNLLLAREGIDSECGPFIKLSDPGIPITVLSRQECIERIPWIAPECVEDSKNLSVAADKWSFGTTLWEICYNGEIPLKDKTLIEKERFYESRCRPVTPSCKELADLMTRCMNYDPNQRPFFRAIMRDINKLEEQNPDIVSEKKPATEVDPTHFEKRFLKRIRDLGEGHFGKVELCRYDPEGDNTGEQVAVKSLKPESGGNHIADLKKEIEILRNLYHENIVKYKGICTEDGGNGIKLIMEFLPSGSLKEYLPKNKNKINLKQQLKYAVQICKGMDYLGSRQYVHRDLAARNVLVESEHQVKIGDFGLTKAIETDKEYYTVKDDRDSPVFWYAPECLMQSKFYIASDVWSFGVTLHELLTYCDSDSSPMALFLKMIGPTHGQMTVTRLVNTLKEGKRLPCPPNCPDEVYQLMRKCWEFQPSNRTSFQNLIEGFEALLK
Chain of TYK2 (P29597 whole entry, species assumed): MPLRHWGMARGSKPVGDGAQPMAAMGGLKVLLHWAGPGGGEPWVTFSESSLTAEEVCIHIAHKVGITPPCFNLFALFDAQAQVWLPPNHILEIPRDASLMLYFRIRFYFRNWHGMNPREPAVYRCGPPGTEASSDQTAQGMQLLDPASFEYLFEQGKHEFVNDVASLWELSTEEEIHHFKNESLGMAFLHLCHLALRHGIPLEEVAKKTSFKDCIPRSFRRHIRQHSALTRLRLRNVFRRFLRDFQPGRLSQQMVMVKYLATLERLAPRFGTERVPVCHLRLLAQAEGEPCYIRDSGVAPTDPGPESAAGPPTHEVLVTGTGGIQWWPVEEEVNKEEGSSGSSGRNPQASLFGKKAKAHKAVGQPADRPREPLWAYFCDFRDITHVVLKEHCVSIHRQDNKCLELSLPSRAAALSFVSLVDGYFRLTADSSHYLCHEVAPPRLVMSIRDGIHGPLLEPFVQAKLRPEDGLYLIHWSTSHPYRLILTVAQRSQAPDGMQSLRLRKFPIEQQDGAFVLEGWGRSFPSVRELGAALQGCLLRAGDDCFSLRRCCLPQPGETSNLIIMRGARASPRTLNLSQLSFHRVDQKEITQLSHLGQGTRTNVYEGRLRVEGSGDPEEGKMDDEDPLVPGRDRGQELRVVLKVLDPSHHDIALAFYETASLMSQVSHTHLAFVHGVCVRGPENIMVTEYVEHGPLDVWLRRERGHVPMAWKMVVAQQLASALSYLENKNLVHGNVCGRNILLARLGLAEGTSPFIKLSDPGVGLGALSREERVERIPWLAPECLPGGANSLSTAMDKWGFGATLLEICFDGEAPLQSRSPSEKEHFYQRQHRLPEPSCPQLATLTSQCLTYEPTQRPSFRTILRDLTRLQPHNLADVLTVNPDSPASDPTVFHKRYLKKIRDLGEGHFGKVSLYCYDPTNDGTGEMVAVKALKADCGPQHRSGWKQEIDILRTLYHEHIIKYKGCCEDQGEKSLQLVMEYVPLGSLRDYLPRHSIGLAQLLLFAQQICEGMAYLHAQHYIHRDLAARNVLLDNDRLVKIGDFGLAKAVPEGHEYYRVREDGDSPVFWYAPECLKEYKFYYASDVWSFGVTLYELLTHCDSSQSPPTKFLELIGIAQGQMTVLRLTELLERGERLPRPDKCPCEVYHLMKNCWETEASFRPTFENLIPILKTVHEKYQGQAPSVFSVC
Chain of JAK2 (O60674 whole entry, species assumed): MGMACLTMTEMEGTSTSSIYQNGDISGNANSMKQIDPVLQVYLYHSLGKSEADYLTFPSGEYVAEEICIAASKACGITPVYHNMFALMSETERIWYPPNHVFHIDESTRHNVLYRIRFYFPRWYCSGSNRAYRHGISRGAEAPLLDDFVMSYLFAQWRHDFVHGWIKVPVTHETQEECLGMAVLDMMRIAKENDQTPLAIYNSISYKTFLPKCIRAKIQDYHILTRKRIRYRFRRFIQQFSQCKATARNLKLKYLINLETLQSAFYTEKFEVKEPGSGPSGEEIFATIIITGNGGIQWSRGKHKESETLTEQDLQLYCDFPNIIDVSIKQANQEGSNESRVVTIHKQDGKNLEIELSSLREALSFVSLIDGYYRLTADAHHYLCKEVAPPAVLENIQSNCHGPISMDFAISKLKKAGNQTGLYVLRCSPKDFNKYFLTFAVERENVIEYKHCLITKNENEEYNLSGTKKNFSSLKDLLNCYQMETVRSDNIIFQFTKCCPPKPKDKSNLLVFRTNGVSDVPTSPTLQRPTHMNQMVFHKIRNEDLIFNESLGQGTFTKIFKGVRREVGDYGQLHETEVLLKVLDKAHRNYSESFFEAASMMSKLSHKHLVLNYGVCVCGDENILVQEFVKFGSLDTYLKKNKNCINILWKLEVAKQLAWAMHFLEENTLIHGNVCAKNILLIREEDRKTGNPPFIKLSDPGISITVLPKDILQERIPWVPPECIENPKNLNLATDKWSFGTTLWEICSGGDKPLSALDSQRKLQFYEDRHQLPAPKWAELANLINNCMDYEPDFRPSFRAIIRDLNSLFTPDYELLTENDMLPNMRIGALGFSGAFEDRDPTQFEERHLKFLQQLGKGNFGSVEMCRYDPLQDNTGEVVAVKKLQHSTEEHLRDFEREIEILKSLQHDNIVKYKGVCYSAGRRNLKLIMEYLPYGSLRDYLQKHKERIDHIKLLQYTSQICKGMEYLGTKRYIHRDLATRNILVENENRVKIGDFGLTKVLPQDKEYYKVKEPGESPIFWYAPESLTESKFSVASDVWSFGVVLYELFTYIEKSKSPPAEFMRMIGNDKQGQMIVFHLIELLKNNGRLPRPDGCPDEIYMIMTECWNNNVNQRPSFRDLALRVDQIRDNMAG
Chain of JAK3 (P52333 whole entry, species assumed): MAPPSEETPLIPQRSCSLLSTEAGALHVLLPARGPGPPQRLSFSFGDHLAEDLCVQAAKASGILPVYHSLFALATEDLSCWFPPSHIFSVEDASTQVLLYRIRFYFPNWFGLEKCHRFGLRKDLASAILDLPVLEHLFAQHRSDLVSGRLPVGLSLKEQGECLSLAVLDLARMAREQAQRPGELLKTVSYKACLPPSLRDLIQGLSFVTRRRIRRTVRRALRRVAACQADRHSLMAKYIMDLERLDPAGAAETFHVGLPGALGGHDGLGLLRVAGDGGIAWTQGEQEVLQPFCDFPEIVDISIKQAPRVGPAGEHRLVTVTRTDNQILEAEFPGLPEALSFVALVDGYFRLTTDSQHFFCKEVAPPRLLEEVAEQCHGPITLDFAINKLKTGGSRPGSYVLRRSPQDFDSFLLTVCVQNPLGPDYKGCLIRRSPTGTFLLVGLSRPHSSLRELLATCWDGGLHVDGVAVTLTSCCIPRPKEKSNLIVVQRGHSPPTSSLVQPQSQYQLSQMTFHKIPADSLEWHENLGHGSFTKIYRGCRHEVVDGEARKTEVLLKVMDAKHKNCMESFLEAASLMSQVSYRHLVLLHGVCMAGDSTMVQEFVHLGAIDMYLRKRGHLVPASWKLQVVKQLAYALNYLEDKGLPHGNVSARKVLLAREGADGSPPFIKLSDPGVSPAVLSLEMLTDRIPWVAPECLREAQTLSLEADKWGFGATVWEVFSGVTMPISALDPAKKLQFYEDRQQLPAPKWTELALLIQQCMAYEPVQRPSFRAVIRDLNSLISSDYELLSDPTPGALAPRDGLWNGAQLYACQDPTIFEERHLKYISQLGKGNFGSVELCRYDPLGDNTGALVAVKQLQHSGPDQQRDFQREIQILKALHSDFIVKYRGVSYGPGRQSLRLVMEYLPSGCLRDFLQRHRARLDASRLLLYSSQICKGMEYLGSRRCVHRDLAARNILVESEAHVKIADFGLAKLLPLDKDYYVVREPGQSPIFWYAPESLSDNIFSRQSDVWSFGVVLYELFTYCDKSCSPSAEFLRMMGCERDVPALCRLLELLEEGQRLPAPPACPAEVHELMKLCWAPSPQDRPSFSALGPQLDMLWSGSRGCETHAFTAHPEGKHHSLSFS

Regarding `CN(c1ccccc1CNc1nc(-c2cc(F)c(O)cc2C2CC2)cc2[nH]nc(C(N)=O)c12)S(C)(=O)=O` [Example 47, 6-(2-cyclopropyl-5-fluoro-4-hydroxyphenyl)-4-({2-[methyl(methylsulfonyl)amino]benzyl}amino)-1H-pyrazolo[4,3-c]pyridine-3-carboxamide], the IC50 was 320 nM in assay [1], 10.6 nM in assay [2], 28.4 nM in assay [3] and 54.3 nM in assay [4].
As for `CN(c1ccccc1CNc1nc(-c2cc(F)c(O)cc2CC(F)(F)F)cc2[nH]nc(C(N)=O)c12)S(=O)(=O)CCCN1CCOCC1` [Example 66, 6-[5-fluoro-4-hydroxy-2-(2,2,2-trifluoroethyl)phenyl]-4-{[2-(methyl{[3-(morpholin-4-yl)propyl]sulfonyl}-amino)benzyl]amino}-1H-pyrazolo[4,3-c]pyridine-3-carboxamide], the IC50 in assay [1] came to 81.3 nM; in assay [2], 3.5 nM; in assay [3], 14.8 nM; in assay [4], 60 nM.
The corresponding values for `CCc1cc(O)c(F)cc1-c1nc(NCc2ccccc2N(C)S(C)(=O)=O)c2c(C(=O)NC)n[nH]c2n1` [Example 93, 6-(2-Ethyl-5-fluoro-4-hydroxyphenyl)-N-methyl-4-((2-(N-methylmethylsulfonamido)benzyl)amino)-1H-pyrazolo[3,4-d]pyrimidine-3-carboxamide] are 13.9 nM, 2 nM, 8.4 nM and 27.4 nM.
The corresponding values for `CCN(c1ccccc1CNc1nc(-c2cc(F)c(O)cc2CC(F)(F)F)nc2[nH]nc(C(=O)NC)c12)S(C)(=O)=O` [Example 103, 4-((2-(N-ethylmethylsulfonamido)-benzyl)amino)-6-(5-fluoro-4-hydroxy-2-(2,2,2-trifluoroethyl)phenyl)-N-methyl-1H-pyrazolo[3,4-d]pyrimidine-3-carboxamide] are 349 nM, 5 nM, 31 nM and 92.6 nM.
The corresponding values for `CNC(=O)c1n[nH]c2cc(-c3cc(F)c(O)cc3CC(F)(F)F)nc(NCc3ccccc3N(C)S(=O)(=O)c3cn[nH]c3)c12` [Example 58, 6-(5-fluoro-4-hydroxy-2-(2,2,2-trifluoroethyl)phenyl)-N-methyl-4-((2-(N-methyl-1H-pyrazole-4-sulfonamido)benzyl)amino)-1H-pyrazolo[4,3-c]pyridine-3-carboxamide] are 67.5 nM, 10.3 nM, 54.4 nM and 236 nM.
Take `CCc1cc(O)c(F)cc1-c1cc2[nH]ncc2c(N(C)Cc2cc(C)ccc2N(CC)S(C)(=O)=O)n1` [Example 142, N-ethyl-N-[2-({[6-(2-ethyl-5-fluoro-4-hydroxyphenyl)-1H-pyrazolo[4,3-c]pyridin-4-yl](methyl)-amino}methyl)-4-methylphenyl]methanesulfonamide]: the IC50 in assay [1] was 885 nM; in assay [2] it was 3.4 nM; in assay [3], 7.9 nM; in assay [4], 27.9 nM.
In the case of `CN(c1ccccc1CNc1nc(-c2cc(F)c(O)cc2CC(F)(F)F)cc2[nH]nc(-n3cccn3)c12)S(C)(=O)=O` [Example 163, N-{2-[({6-[5-Fluoro-4-hydroxy-2-(2,2,2-trifluoroethyl)phenyl]-3-(1H-pyrazol-1-yl)-1H-pyrazolo[4,3-c]pyridin-4-yl}amino)methyl]phenyl}-N-methylmethanesulfonamide], the IC50 was 356 nM in assay [1], 32.9 nM in assay [2], 150 nM in assay [3] and 491 nM in assay [4].
Taken in the same sequence, the figures for `Cc1ccc(S(=O)(=O)N(C)c2ccccc2CNc2nc(-c3cc(F)c(O)cc3CC(F)(F)F)cc3[nH]nc(C(N)=O)c23)cn1` [Example 70, 6-[5-fluoro-4-hydroxy-2-(2,2,2-trifluoroethyl)phenyl]-4-[(2-{methyl[(6-methylpyridin-3-yl)sulfonyl]amino}benzyl)amino]-1H-pyrazolo[4,3-c]pyridine-3-carboxamide] were 79.4 nM, 12 nM, 52.4 nM and 208 nM.
Taken in the same sequence, the figures for `CCc1cc(O)c(F)cc1-c1cc2[nH]nc(C(N)=O)c2c(NCc2ccccc2N(C)S(=O)(=O)c2ccccc2)n1` [Example 40, 6-(2-Ethyl-5-fluoro-4-hydroxyphenyl)-4-({2-[methyl(phenylsulfonyl)amino]benzyl}amino)-1H-pyrazolo[4,3-c]pyridine-3-carboxamide] were 18.1 nM, 4.6 nM, 23.1 nM and 130 nM.
Taken in the same sequence, the figures for `Cc1ccc(N(C)S(C)(=O)=O)c(CNc2nc(-c3cc(F)c(O)cc3CC(F)(F)F)cc3[nH]ncc23)c1` [Example 150, N-{2-[({6-[5-Fluoro-4-hydroxy-2-(2,2,2-trifluoroethyl)phenyl]-1H-pyrazolo[4,3-c]pyridin-4-yl}amino)methyl]-4-methylphenyl}-N-methylmethanesulfonamide] were 4160 nM, 21.6 nM, 48.9 nM and 77.8 nM.
For `CNC(=O)c1n[nH]c2cc(-c3cc(F)c(O)cc3CC(F)(F)F)nc(NCC3CCCC3)c12` [Example 17, 4-[(cyclopentylmethyl)-amino]-6-[5-fluoro-4-hydroxy-2-(2,2,2-trifluoro-ethyl)phenyl]-N-methyl-1H-pyrazolo[4,3-c]pyridine-3-carboxamide], the IC50 in assay [1] came to 142 nM; in assay [2] it was 18.5 nM; in assay [3], 52.9 nM; in assay [4] it was 256 nM.
On to `CCc1cc(O)c(F)cc1-c1cc2[nH]nc(C(=O)NC)c2c(NCc2ccccc2N(C)S(=O)(=O)CC)n1` [Example 3, 6-(2-ethyl-5-fluoro-4-hydroxy-phenyl)-4-({2-[(ethylsulfonyl)-(methyl)amino]benzyl}amino)-N-methyl-1H-pyrazolo[4,3-c]pyridine-3-carboxamide], for which the IC50 in assay [1] came out at 6.8 nM; in assay [2], 1.9 nM; in assay [3], 9.6 nM; in assay [4], 47.5 nM.
Taken in the same sequence, the figures for `CNC(=O)c1n[nH]c2nc(-c3cc(F)c(O)cc3CC(F)(F)F)nc(NCc3ccccc3N(C)S(=O)(=O)NC)c12` [Example 110, 6-(5-Fluoro-4-hydroxy-2-(2,2,2-trifluoroethyl)phenyl)-N-methyl-4-((2-(methyl(N-methylsulfamoyl)amino)benzyl)amino)-1H-pyrazolo[3,4-d]pyrimidine-3-carboxamide] were 35 nM, 5.4 nM, 26.9 nM and 120 nM.
For `CCN(c1ccc(F)cc1CNc1nc(-c2cc(F)c(O)cc2CC(F)(F)F)cc2[nH]nc(C(N)=O)c12)S(C)(=O)=O` [Example 83, 4-((2-(N-ethylmethylsulfonamido)-5-fluorobenzyl)amino)-6-(5-fluoro-4-hydroxy-2-(2,2,2-trifluoro-ethyl)phenyl)-1H-pyrazolo[4,3-c]pyridine-3-carboxamide], the IC50 in assay [1] is 139 nM; in assay [2], 12.1 nM; in assay [3], 63.3 nM; in assay [4], 201 nM.
Taken in the same sequence, the figures for `CCc1cc(O)c(F)cc1-c1cc2[nH]ncc2c(NCc2ccccc2N(C)S(C)(=O)=O)n1` [Example 131, N-[2-({[6-(2-Ethyl-5-fluoro-4-hydroxyphenyl)-1H-pyrazolo[4,3-c]pyridin-4-yl]amino}methyl)phenyl]-N-methylmethanesulfonamide] were 4.7 nM, less than 0.5 nM, 2.1 nM and 10.2 nM.
The corresponding values for `CCc1cc(O)c(F)cc1-c1cc2[nH]nc(C(=O)NC)c2c(N[C@H](C)c2ccccc2N(C)S(C)(=O)=O)n1` [Example 38, 6-(2-Ethyl-5-fluoro-4-hydroxyphenyl)-N-methyl-4-{[(1R)-1-{2-[methyl(methylsulfonyl)amino]phenyl}ethyl]amino}-1H-pyrazolo[4,3-c]pyridine-3-carboxamide] are 17.8 nM, 4 nM, 25 nM and 122 nM.
The corresponding values for `CN(c1ccccc1CNc1nc(-c2cc(F)c(O)cc2CC(F)(F)F)cc2[nH]nc(C(N)=O)c12)S(=O)(=O)c1cccnc1` [Example 61, 6-[5-fluoro-4-hydroxy-2-(2,2,2-trifluoroethyl)phenyl]-4-({2-[methyl(pyridin-3-ylsulfonyl)amino]benzyl}amino)-1H-pyrazolo[4,3-c]pyridine-3-carboxamide] are 52.3 nM, 7.3 nM, 30.2 nM and 110 nM.
As to `CCc1cc(O)c(F)cc1-c1cc2[nH]nc(-c3nnc(C)[nH]3)c2c(NCc2ccccc2N(C)S(C)(=O)=O)n1` [Example 165, N-[2-({[6-(2-Ethyl-5-fluoro-4-hydroxyphenyl)-3-(5-methyl-4H-1,2,4-triazol-3-yl)-1H-pyrazolo[4,3-c]pyridin-4-yl]amino}methyl)phenyl]-N-methylmethanesulfonamide], the IC50 in assay [1] was 14.6 nM; in assay [2] it was 3.5 nM; in assay [3] it was 16.9 nM; in assay [4] it was 78 nM.
Taken in the same sequence, the figures for `CNC(=O)c1n[nH]c2cc(-c3cc(F)c(O)cc3CC(F)(F)F)nc(NCc3ncccc3N(C)S(C)(=O)=O)c12` [Example 55, 6-[5-Fluoro-4-hydroxy-2-(2,2,2-trifluoroethyl)phenyl]-N-methyl-4-[({3-[methyl(methylsulfonyl)amino]pyridin-2-yl}methyl)amino]-1H-pyrazolo[4,3-c]pyridine-3-carboxamide] were 45.9 nM, 2.1 nM, 13.7 nM and 54 nM.

These data come from US9518052B2, “Pyrazolopyridines and pyrazolopyrimidines” (Pfizer Inc., priority 2014, dated 2016).
